Source: article PMC3251870 (British Journal of Cancer, 2011)

Key:
[1] = tested on: HBEC15KT human bronchial epithelial cells; test: MTS cell viability, HBEC15KT; format: cell-based; settings: 4 days
Method: (§1) All human cancer cell lines were maintained in RPMI media supplemented with 5% (lung and breast cancer cells) or 10% (melanoma cells) fetal bovine serum. […] Human mammary epithelial cells immortalised with telomerase were maintained in complete MEGM media from Cambrex (East Rutherford, NJ, USA).
(§2) Absorbance at 490 and 650 nm (reference wavelength) was measured by a Spectra Max (Molecular Devices, Sunnyvale, CA, USA) or a FlouroStar Omega (BMG Biosciences, Ortenberg, Germany) plate reader. Data were normalised to the untreated controls (100% viability). Each cell line was tested in 1–5 independent assays, each containing 4–8 replicates. IC50 values were calculated using DIVISA, a high-throughput software, developed in-house (manuscript in preparation), for storing and analysing drug sensitivity assays. Dose–response curves were plotted using a non-linear regression model and IC50s were determined from the fitted curves.

A549 cells = test: MTS cell viability, A549; format: cell-based, human; settings: A549 NSCLC, 4 days
Method: as §1, §2

SKMEL2 melanoma cells = test: MTS cell viability, SKMEL2; format: cell-based, human; settings: SKMEL2 melanoma, MTS, 4 days
Method: as §1, §2

HCC1806 cells = test: MTS cell viability, HCC1806; format: cell-based, human; settings: HCC1806 breast cancer line, 4 days
Method: as §1, §2

UACC257 melanoma cells = test: MTS cell viability, UACC257; format: cell-based, human; settings: 4 days
Method: as §1, §2

SKMEL28 melanoma cells = test: MTS cell viability, SKMEL28; format: cell-based, human; settings: 4 days
Method: as §1, §2

H2086 cells = test: MTS cell viability, H2086; format: cell-based, human; settings: H2086 NSCLC, 4 days
Method: as §1, §2

HCC15 cells = test: MTS cell viability, HCC15; format: cell-based, human; settings: HCC15 NSCLC, MTS, 4 days
Method: as §1, §2

H358 cells = test: MTS cell viability, H358; format: cell-based, human; settings: H358 NSCLC, 4 days
Method: as §1, §2

[2] = tested on: HBEC16KT human bronchial epithelial cells; test: MTS cell viability, HBEC16KT; format: cell-based; settings: 4 days
Method: as §1, §2

H2009 cells = test: MTS cell viability, H2009; format: cell-based, human; settings: H2009 NSCLC, 4 days
Method: as §1, §2

H820 cells = test: MTS cell viability, H820; format: cell-based, human; settings: H820 NSCLC, 4 days
Method: as §1, §2

SKMEL5 melanoma cells = test: MTS cell viability, SKMEL5; format: cell-based, human; settings: 4 days
Method: as §1, §2

[3] = tested on: histone 4 acetylation in H358 cells; test: Western blot, acetylated histone 4; format: cell-based, human; settings: 4 h
Method: (§3) Exponentially growing cells were treated with the appropriate compounds and harvested 4 or 24 h later in a standard nuclear lysis buffer and whole cell lysates were quantified. Equal amounts of total protein were loaded onto 4–12% Bis-Tris SDS gels and subjected to electrophoresis. After transferring onto nitrocellulose membranes, blots were probed for acetylated tubulin (Sigma, St Louis, MO, USA; T6793), acetylated histone 3 (Millipore/Upstate #06-599), acetylated histone 4 (Millipore/Upstate #07-329) or trimethylated histone 3 at lysine 9 (Millipore/Upstate #07-523). Actin (Santa Cruz, Santa Cruz, CA, USA; #1616) and HDAC1 (Affinity Bioreagents, Rockford, IL, USA; #PA1-860) were probed as loading controls. Quantification of bands in films was performed using two independent methods, which yielded similar results, Image J (NIH public software) and Quantity one (Bio-Rad, Hercules, CA, USA). The average of the two methods±s.e.m. is shown as specified in figure legends. For the MDR western analysis, a primary antibody against P-glycoprotein from Calbiochem (Darmstadt, Germany) was used according to the manufacturer's recommendations and HSP90 (Santa Cruz) was used as a loading control.

[4] = tested on: total HDAC activity, C127 cell extracts; test: Total HDAC activity in cell extracts treated in vitro; format: biochemical
Text: HDAC2 was purified as described below.

H1355 cells = test: MTS cell viability, H1355; format: cell-based, human; settings: H1355 NSCLC, 4 days
Method: as §1, §2

[5] = tested on: OMM2.3 uveal melanoma cells; test: MTS cell viability, OMM2.3; format: cell-based, human; settings: 4 days
Method: as §1, §2

H1437 cells = test: MTS cell viability, H1437; format: cell-based, human; settings: H1437 NSCLC, MTS, 4 days
Method: as §1, §2

MCF-7 cells = test: MTS cell viability, MCF-7; format: cell-based, human; settings: 4 days; for IC50: MCF-7 breast cancer line
Method: as §1, §2

H2085 cells = test: MTS cell viability, H2085; format: cell-based, human; settings: H2085 NSCLC, 4 days
Method: as §1, §2

[6] = tested on: HBEC34KT human bronchial epithelial cells; test: MTS cell viability, HBEC34KT; format: cell-based; settings: HBEC34KT (normal, matched to HCC4018), 4 days
Method: as §1, §2

H1395 cells = test: MTS cell viability, H1395; format: cell-based, human; settings: H1395 NSCLC, 4 days
Method: as §1, §2

UACC62 melanoma cells = test: MTS cell viability, UACC62; format: cell-based, human; settings: 4 days
Method: as §1, §2

[7] = tested on: MEL270 uveal melanoma cells; test: MTS cell viability, MEL270; format: cell-based, human; settings: 4 days
Method: as §1, §2

[8] = tested on: HBEC3KT human bronchial epithelial cells; test: MTS cell viability, HBEC3KT; format: cell-based; settings: 4 days
Method: as §1, §2

[9] = tested on: HCC4018 lung cancer cells; test: MTS cell viability, HCC4018; format: cell-based, human; settings: HCC4018 (lung cancer, matched to HBEC34KT), MTS, 4 days
Method: as §1, §2

HCC1500 cells = test: MTS cell viability, HCC1500; format: cell-based, human; settings: HCC1500 breast cancer line, 4 days
Method: as §1, §2

[10] = tested on: OCM1 uveal melanoma cells; test: MTS cell viability, OCM1; format: cell-based, human; settings: 4 days
Method: as §1, §2

[11] = tested on: histone 3 trimethylated at lysine 9 in H358 cells; test: Western blot, histone 3 lysine 9 trimethylation; format: cell-based, human
Method: as §3

H1993 cells = test: MTS cell viability, H1993; format: cell-based, human; settings: H1993 NSCLC, MTS, 4 days
Method: as §1, §2

[12] = tested on: 348T immortalised normal human mammary epithelial cells; test: MTS cell viability, 348T; format: cell-based; settings: 4 days
Method: as §1, §2

H292 cells = test: MTS cell viability, H292; format: cell-based, human; settings: H292 NSCLC, 4 days
Method: as §1, §2

MCF-10 cells = test: MTS cell viability, MCF-10; format: cell-based, human; settings: MCF-10, MTS, 4 days
Method: as §1, §2

Structure (SMILES) | IC50 [1] [nM] | IC50 (A549 cells) [nM] | IC50 (SKMEL2 melanoma cells) [nM] | IC50 (HCC1806 cells) [nM] | IC50 (UACC257 melanoma cells) [nM] | IC50 (SKMEL28 melanoma cells) [nM] | IC50 (H2086 cells) [nM] | IC50 (HCC15 cells) [nM] | IC50 (H358 cells) [nM] | IC50 [2] [nM] | IC50 (H2009 cells) [nM] | IC50 (H820 cells) [nM] | IC50 (SKMEL5 melanoma cells) [nM] | IC50 (H1355 cells) [nM] | IC50 [5] [nM] | IC50 (H1437 cells) [nM] | IC50 (MCF-7 cells) [nM] | IC50 (H2085 cells) [nM] | IC50 [6] [nM] | IC50 (H1395 cells) [nM] | also measured
C/C=C1\NC(=O)[C@H]2CSSCC/C=C/[C@H](CC(=O)N[C@H](C(C)C)C(=O)N2)OC(=O)[C@H](C(C)C)NC1=O [Depsipeptide, depsipeptide] | 2.5 | 2 | 0.4 | 1.8 | 1.6 | 0.8 | 3.8 | 6.4 | 1.1 | 4.9 | 0.9 | 4 | 1.5 | 1.8 | 2.7 | 0.5 | 4.2 | 6.9 | 1.3 | 5.3 | global level of histone 4 acetylation ([3]; 25 nM): globally increased; inhibition of total HDAC activity in cell extracts treated in vitro ([4]; 20 nM): partly inhibited; surviving population (MCF-7 cells; MCF7 cells): 30–40%; IC50 (UACC62 melanoma cells): 0.9 nM; IC50 [7]: 1.8 nM; IC50 [8]: 1 nM; IC50 [9]: 4.2 nM; IC50 (HCC1500 cells): 1.5 nM; IC50 [10]: 5.5 nM; global level of histone 3 trimethylated at lysine 9 ([11]; 25 nM): reproducibly decreased; IC50 (H1993 cells): 1.2 nM; IC50 [12]: 1.3 nM; IC50 (H292 cells): 0.7 nM; IC50 (MCF-10 cells): 2.4 nM
CC(/C=C/C(=O)NO)=C\[C@@H](C)C(=O)c1ccc(N(C)C)cc1 [TSA, trichostatin A] | 295 | 39.7 | 336 | 41 | 222 | 400 | 275 | 7.9 | 40 | 260 | 38.3 | 55 | 66 | 107 | 81 | 191 | 90 | 390 | 346 | 41 | global level of histone 4 acetylation ([3]; 200 nM): globally increased; inhibition of total HDAC activity in cell extracts treated in vitro ([4]; 150 nM): blocked; IC50 (UACC62 melanoma cells): 238 nM; IC50 [7]: 68 nM; IC50 [8]: 318 nM; IC50 [9]: 23 nM; IC50 (HCC1500 cells): 29 nM; IC50 [10]: 188 nM; global level of histone 3 trimethylated at lysine 9 ([11]; 200 nM): no effect; IC50 (H1993 cells): 93.5 nM; IC50 [12]: 81 nM; IC50 (H292 cells): 22.5 nM; IC50 (MCF-10 cells): 96 nM
